How the values were obtained:
[1] = Highest frequency of moderate liver toxicity observed during clinical trials, expressed as a percentage. [column '% BIOL' in source]; details: human
[2] = Highest frequency of acute liver toxicity observed during clinical trials, expressed as a percentage. [column '% AIGUE' in source]; details: human
[3] = Comments (NB not yet translated). [column 'COMMENTAIRES' in source]; details: human
[4] = Times to onset, minimal and maximal, observed in the indexed observations. [column 'DELAI' in source]; details: human
[5] = human, serum
[6] = human, serum; remark: listed apart in the source
[7] = human
[8] = human; remark: listed apart in the source
[9] = human; remark: listed apart in the source
[10] = human, serum, 4383 h
[11] = human; remark: listed apart in the source
[12] = human; remark: listed apart in the source
[13] = human; remark: listed apart in the source
[14] = human; remark: listed apart in the source
[15] = human; remark: listed apart in the source
[16] = human; remark: listed apart in the source
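For Hepatotoxicity (association with vascular disease) in this document: count of indexed literature references reporting vascular liver injury in humans, e.g. peliosis hepatitis, hepatic veno-occlusive disease or Budd-Chiari syndrome.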
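For Hepatotoxicity (benign tumour) in this document: value is a count of indexed literature references citing a benign tumour confirmed by histopathology.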
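For Hepatotoxicity (choleostasis) in this document: human cholestatic liver injury, shown by histopathology or by peak ALT or AST elevation over alkaline phosphatase ratio below 2, value counts indexed literature reports.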
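For Hepatotoxicity (chronic liver disease) in this document: chronic liver injury confirmed by histopathology or persistently raised serum aminotransferase activity beyond 6 months, value given as the count of indexed literature references.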
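For Hepatotoxicity (cirrhosis) in this document: value is a count of indexed literature references reporting cirrhosis confirmed by histopathology.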
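For Hepatotoxicity (cytolytic) in this document: human cytolytic liver injury, shown by histopathology or by a ratio above 5 of peak ALT or AST elevation to alkaline phosphatase elevation, value counts indexed references.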
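For Hepatotoxicity (granulomatous hepatitis) in this document: value is a count of indexed literature references reporting granulomatous liver disease confirmed by histopathology.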
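For Hepatotoxicity (malignant tumour) in this document: malignant tumour confirmed by histopathology, value gives the count of indexed literature references reporting it.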
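For Hepatotoxicity (severe hepatitis) in this document: human clinical data: severe hepatitis, meaning potentially life-threatening liver failure or clinically observed cases, the value counts how many indexed literature references report it.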
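For Hepatotoxicity (steatosis) in this document: steatosis confirmed by histopathology, value is the count of indexed references.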

| Structure (SMILES) | Hepatotoxicity (moderate) [1] | Hepatotoxicity (acute) [2] | Hepatotoxicity (comment) [3] | Hepatotoxicity (time to onset) [4] | Hepatotoxicity (moderate) [5] | Hepatotoxicity (acute) [6] | Hepatotoxicity (cytolytic) [7] | Hepatotoxicity (choleostasis) [8] | Hepatotoxicity (severe hepatitis) [9] | Hepatotoxicity (chronic liver disease) [10] | Hepatotoxicity (cirrhosis) [11] | Hepatotoxicity (granulomatous hepatitis) [12] | Hepatotoxicity (association with vascular disease) [13] | Hepatotoxicity (steatosis) [14] | Hepatotoxicity (malignant tumour) [15] | Hepatotoxicity (benign tumour) [16] | Hepatotoxicity (moderate) ([1]; Liver) | Hepatotoxicity (acute) ([2]; Liver) | Hepatotoxicity (severe hepatitis) ([9]; Liver) |
| --- | --- | --- | --- | --- | --- | --- | --- | --- | --- | --- | --- | --- | --- | --- | --- | --- | --- | --- | --- |
| C#CCN(C)[C@H](C)Cc1ccccc1 [SELEGILINE] | 4% | 0% | CHOLESTASE_PROLONGEE | 3 months | 2 | 1 | 0 | 1 | 0 | 0 | 0 | 0 | 0 | 0 | 0 | 0 |  |  |  |
| C[C@]12Cc3c[nH]nc3C[C@@H]1CC[C@@H]1[C@@H]2CC[C@@]2(C)[C@H]1CC[C@]2(C)O [STANOZOLOL] | 26.1% | 0% | ANGIOSARCOME HNF | 1 month - 20 years | 6 | 6 | 2 | 4 | 1 | 0 | 0 | 0 | 0 | 0 | 2 | 3 |  |  |  |
| CCN1CCCC1CNC(=O)c1cc(S(N)(=O)=O)ccc1OC (stereo not given) [SULPIRIDE] | 4% | 0% | DUCTOPENIE | 1 week - 3 months | 3 | 3 | 0 | 1 | 1 | 0 | 0 | 0 | 0 | 0 | 0 | 0 |  |  |  |
| Cc1ccc(C(=O)Nc2ccc(S(=O)(=O)O)c3cc(S(=O)(=O)O)cc(S(=O)(=O)O)c23)cc1NC(=O)c1cccc(NC(=O)Nc2cccc(C(=O)Nc3cc(C(=O)Nc4ccc(S(=O)(=O)O)c5cc(S(=O)(=O)O)cc(S(=O)(=O)O)c45)ccc3C)c2)c1 [SURAMIN] | 63% | 6.3% | REACTIVATION_HVB | 1 week - 8 months | 11 | 3 | 1 | 0 | 1 | 0 | 0 | 0 | 0 | 0 | 0 | 0 |  |  |  |
| CC(C)(C)NCC(O)c1cc(O)cc(O)c1 (stereo not given) [TERBUTALINE] | 0% | 0% | VOIR_BAMBUTEROL | 4 weeks - 8 weeks | 0 | 2 | 2 | 0 | 0 | 0 | 0 | 0 | 0 | 0 | 0 | 0 |  |  |  |
| C[C@]12CC[C@H]3[C@@H](CCC4=CC(=O)CC[C@@]43C)[C@@H]1CC[C@@H]2O [TESTOSTERONE] | 0% | 0% | ANGIOSARCOME CHOLESTASE_PROLONGEE PELIOSE | 3 months - 11 years | 0 | 3 | 0 | 3 | 1 | 0 | 0 | 0 | 6 | 0 | 2 | 3 |  |  |  |
| O=C1CCC(N2C(=O)c3ccccc3C2=O)C(=O)N1 (stereo not given) [THALIDOMIDE] | 5.6% | 0% | REACTIVATION_HVC | 5 days - 7 months | 3 | 2 | 2 | 0 | 0 | 0 | 0 | 0 | 0 | 0 | 0 | 0 |  |  |  |
| CSc1ccc2c(c1)N(CCC1CCCCN1C)c1ccccc1S2 (stereo not given) [THIORIDAZINE] |  |  | RC/CHLORPROMAZINE | 1 week - 1 year | 2 | 5 | 2 | 5 |  | 1 | 0 | 0 | 0 | 0 | 0 | 0 | 0% | 0% | 1 |
| Cc1cc(Br)c(O)c2ncccc12 [TILBROQUINOL] | 0% | 0% | CHOLANGITE | 4 days | 0 | 1 | 0 | 0 | 0 | 0 | 0 | 1 | 0 | 0 | 0 | 0 |  |  |  |
| Cc1ccc(O)c2ncccc12 [TILIQUINOL] | 0% | 0% | CHOLANGITE | 4 days | 0 | 1 | 0 | 0 | 0 | 0 | 0 | 1 | 0 | 0 | 0 | 0 |  |  |  |
